Like-named read-outs stand apart in the source and are kept apart here.
How the values were obtained:
[1] = Preliminary pharmacokinetic study in male adult rats; type: in vivo; conditions: rat; for half-life / AUC / Cmax: male, plasma; for AUC: read-out: AUC; for Cmax: read-out: Cmax
Procedure: The bioavailability of the compounds were evaluated in male adult rats dosed intravenously through the tail vein (5 mg/kg) and orally (20 mg/kg). The plasma samples were collected at 2, 5, 15, 30, 60, 90, 120 and 240 minutes after intravenous dosing and 5, 15, 30, 60, 90, 120, 240 and 360 minutes after oral dosing.
Blood samples (1 ml) were collected from the rat tails into a vacutainer containing EDTA (3 ml) for both iv and po administrations. Plasma samples were prepared by centrifugation at 2000 ×g for 15 minutes at 4° C.
Plasma samples (diluted to 1 ml with water) were loaded onto the Abselut Nexus sorbent (# 1210-3100 ) and drawn through under low vacuum (approximately 5′′ Hg). One milliliter of deionized water was added to the sorbent and drawn through under vacuum. The extraction column was dried for 1 minute using a high vacuum (>10′′ Hg). One milliliter of methanol was added to the Abselut Nexus column and the eluent was collected at 1-2 ml/min. The eluent was evaporated to dryness using a Speed Vac, and the samples were reconstituted in 120 μl H2O; 100 μl was used for injection.

[2] = system: Zidovudine^R/Lamivudine^R (3) clinical HIV-1 isolates (third group of Table 7); assay: microbe, parasite or virus in culture; type: cell-based
Procedure: ANTIVIRAL ASSAYS. […] Briefly, cells were incubated with virus at a multiplicity of infection (MOI) of 0.005 for T cell assays and an MOI of 0.5 for monocytic cell assays for 3 hrs. Unbound virus was then removed by washing the cells, followed by seeding the cells into a 96-well plate. The infected cells were cultured in the presence of a serial concentrations of the test compound for 5-7 days. The anti-HIV-1 efficacy was determined by testing for HIV-1 RT activity or p24 level in the cell culture supernatants. All assays were performed in duplicate. Zidovudine and/or lamivudine were used as controls in each experiment.
Clinical strains were isolated from PBMCs of HIV-1 infected individuals through co-culture with PBMCs from normal dornors.

[3] = system: HepG2 cells; assay: Mitochondria DNA toxicity assay; type: cell-based; conditions: 28 days, up to 100 μM, the highest concentration tested (FIG. 1)
Procedure: Mitochondria DNA (mtDNA) toxicity of the compound A (−) was tested in HepG2 cells. The cells were cultured for 28 days under the compound treatment. Th cells were passaged once a week. However, the cell culture medium containing proper concentration of the compound was changed twice a week. Zalcitabine was used as a control. The toxicity was determined by measuring content ratio of mtDNA and nuclear DNA (28s rDNA) by a southern hybridization assay (de Muys et al., 1999). […]

[4] = system: HT1080; assay: Cellular toxicity by [3H]-thymidine uptake; type: cell-based; conditions: Table 4; 72 hrs
In short: (§1)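 Cells plated at 1-2×10^3/well, pre-incubated 24 h, then exposed 72 h to 10-fold serial compound dilutions (10^−4 M to 10^−10 M). [3H]-thymidine was added for the final 18 h and DNA incorporation counted after hypotonic lysis and harvesting. CC50 derived from cpm relative to untreated controls.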

[5] = system: HepG-2; assay: Cellular toxicity by [3H]-thymidine uptake; type: cell-based; conditions: Table 4; 72 hrs
In short: as §1

[6] = system: Molt-4; assay: Cellular toxicity by [3H]-thymidine uptake; type: cell-based; conditions: Table 14; 72 hrs; read-out: CC50 (μM) [^3H]TTP incorporation in: Molt4
In short: as §1

[7] = system: HSF; assay: Cellular toxicity by [3H]-thymidine uptake; type: cell-based; conditions: Table 14; 72 hrs; read-out: CC50 (μM) [^3H]TTP incorporation in: HSF
In short: as §1

[8] = Human immunodeficiency virus 1, read-out: EC50 (μM), mean EC50 values
[9] = Human immunodeficiency virus 1, read-out: EC50 (μM), ranges of EC50s of the isolates in the same group

Question: Which half-life ([1]; iv 5 mg/kg) does the source give for `Nc1nc(NC2CC2)c2ncn([C@H]3CO[C@@H](CO)O3)c2n1` [Compound A (-), (−)-(2R,4R)-2-hydroxymethyl-4-(2′-amino-6′-cyclopropylamino-purine-9′-yl)-1,3-dioxolane] here?
Answer: 22.2 min

Question: And the AUC ([1]; iv 5 mg/kg)?
Answer: 4740 ng·h/mL

Question: And the Cmax ([1]; iv 5 mg/kg)?
Answer: 14300 ng/mL

Question: What about the half-life ([1]; oral 20 mg/kg) of the same compound?
Answer: 38.4 min

Question: And the AUC ([1]; oral 20 mg/kg)?
Answer: 8640 ng·h/mL

Question: And the Cmax ([1]; oral 20 mg/kg)?
Answer: 4200 ng/mL

Question: And the “Oral BA (%)” value ([1]; oral 20 mg/kg)?
Answer: 45.56%

Question: And the EC50 [2, 8]?
Answer: 0.19 µM

Question: What about the EC50 [2, 9] of the same compound?
Answer: 0.066 to 0.33 µM

Question: And the “mtDNA toxicity (content ratio of mtDNA and nuclear DNA, southern hybridization)” value [3]?
Answer: did not show significant mtDNA toxicity

Question: Which results are given for `Nc1ccn([C@@H]2CS[C@H](CO)O2)c(=O)n1` [Lamivudine, lamivudine]?
Answer: CC50 (μM) [^3H-]TTP incorporation in: HT1080 [4]: >500/100; CC50 (μM) [^3H-]TTP incorporation in: HepG2 [5]: 350/100; CC50 [6]: > 100 µM

Question: With `Cc1cn([C@H]2C[C@H](N=[N+]=[N-])[C@@H](CO)O2)c(=O)[nH]c1=O` [Zidovudine, zidovudine] as the compound, how does the CC50 [7] read?
Answer: > 10 µM

Question: What about the EC50 [2, 8] of the same compound?
Answer: 0.83 µM

Question: And the EC50 [2, 9]?
Answer: 0.25 to 1.74 µM
